Experiments:
HSV = conditions: cited from earlier work
HSV-1 = experiment: Fractionation and in situ localization of virus DNA; type: cell-based, HSV-1 Glasgow strain 17; conditions: 100 μg/ml cycloheximide, 1 hpi

Row | Molecule | HSV attachment / virus binding (HSV) | virus DNA associated with the nuclear fraction versus no drug control (HSV-1) | cell-to-cell spread of HSV (HSV) | step inhibited instead of binding (HSV)
1 | Heparin | can block attachment |  |  | 
2 | C[C@@H]1C[C@@H]([C@H](O)CC2CC(=O)NC(=O)C2)C(=O)[C@@H](C)C1 [cycloheximide, reference compound] |  | no effect on the amount of virus DNA associated with the nuclear fraction |  | 
3 | Cc1ccc(C(=O)Nc2ccc(S(=O)(=O)O)c3cc(S(=O)(=O)O)cc(S(=O)(=O)O)c23)cc1NC(=O)c1cccc(NC(=O)Nc2cccc(C(=O)Nc3cc(C(=O)Nc4ccc(S(=O)(=O)O)c5cc(S(=O)(=O)O)cc(S(=O)(=O)O)c45)ccc3C)c2)c1 [Sumarin] | able to block HSV attachment |  | able to inhibit cell-to-cell spread | 
4 | CCCCCCCCCCCCCCCCCCCCCCO [n-docosanol] | does not inhibit virus binding |  |  | fusion of the virus envelope with the cell's plasma membrane

Source: patent publication US6756368B1, “Use of cobalt chelates for treating or preventing virus infection” (The Trustees of Columbia University in the City of New York, priority 1999, dated 2004)
